From patent US20100216779A1 (GLAXOSMITHKLINE LLC, priority 2007, published 2010)

Legend:
[1] = molecular target: T1, human IR (hIR) (Homo sapiens, UniProt P06213); experiment: IR TR-FRET assay using peptide as the phosphoacceptor; assay type: biochemical; settings: 10 μM ATP, 0.5 nM activated enzyme; for IC50: read-out: IR pIC50 (converted)
T1 construct: containing amino acid residues 979-1382 of human IR; GST (N); rTEV protease site (linker between GST and kinase) (N); made in house; host or cells: Sf9 cells, baculovirus (same process as hIGF1R)
T1 sequence (P06213 979-1382): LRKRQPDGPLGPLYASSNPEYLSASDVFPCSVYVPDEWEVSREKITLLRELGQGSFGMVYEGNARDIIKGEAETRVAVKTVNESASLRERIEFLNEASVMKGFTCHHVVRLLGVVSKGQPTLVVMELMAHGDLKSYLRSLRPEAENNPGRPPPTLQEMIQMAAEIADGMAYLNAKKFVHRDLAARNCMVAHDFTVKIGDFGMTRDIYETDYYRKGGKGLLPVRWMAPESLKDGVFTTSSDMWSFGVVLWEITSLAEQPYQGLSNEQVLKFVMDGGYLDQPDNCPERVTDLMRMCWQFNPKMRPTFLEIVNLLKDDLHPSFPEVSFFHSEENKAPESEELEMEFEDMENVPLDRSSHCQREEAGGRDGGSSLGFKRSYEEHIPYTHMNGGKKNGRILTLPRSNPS

[2] = molecular target: T2, human IGF1R (hIGF1R) (Homo sapiens, UniProt P08069); experiment: IGF1R TR-FRET assay using peptide as the phosphoacceptor; assay type: biochemical; settings: 10 μM ATP, 0.5 nM activated enzyme; for IC50: read-out: IGF-1R pIC50 (converted)
T2 construct: containing amino acid residues 957-1367 of human IGF1R; made in house; host or cells: Sf9 cells, baculovirus
T2 sequence (P08069 957-1367): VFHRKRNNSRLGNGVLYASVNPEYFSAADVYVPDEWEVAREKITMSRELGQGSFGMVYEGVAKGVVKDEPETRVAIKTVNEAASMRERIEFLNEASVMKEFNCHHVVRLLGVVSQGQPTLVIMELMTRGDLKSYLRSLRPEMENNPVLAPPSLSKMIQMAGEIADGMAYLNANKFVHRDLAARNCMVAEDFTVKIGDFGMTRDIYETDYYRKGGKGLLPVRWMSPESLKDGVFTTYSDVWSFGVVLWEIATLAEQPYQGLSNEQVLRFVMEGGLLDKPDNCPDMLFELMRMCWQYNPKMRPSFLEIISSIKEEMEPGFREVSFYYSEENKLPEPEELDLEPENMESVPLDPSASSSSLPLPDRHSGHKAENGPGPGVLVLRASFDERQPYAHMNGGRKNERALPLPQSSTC
Protocol: A. IR and IGF1 R Time Resolved Fluorescence Resonance Energy Transfer (TR-FRET) Assay Using Peptide as the Phosphoacceptor
Substrate phosphorylation assays are carried out as follows:
The Source of Substrate Peptide
The biotinylated substrate peptide, (sequence-Biotin-aminohexyl-AEEEEY*[…]-NH2) SEQ. ID. 1 is purchased from QCB, Inc. (Hopkinton, Mass.). Purity is determined by HPLC. The calculated molecular mass of the peptide is 2216 dalton. Tyrosine phosphorylation by human IGF1R (hIGF1R) or human IR (hIR) occurs as indicated (Y*) in the peptide sequence described. Solid peptide sample is dissolved to approximately 1 mM in DMSO, aliquoted, and stored at −20° C. until use. True peptide concentration is determined by amino acid analysis.
The Source of Enzyme: • hIGF1R: GST-rTEV-IGF-1R (957-1367) containing amino acid residues 957-1367 of human IGF1R (as annotated by National Center for Biotechnology Information (NCBI) accession number NP_000866) is purified from a baculovirus expression system in Sf9 cells using Glutathione Sepharose 4FF column chromatography followed by Sephadex-200 size exclusion column chromatography. Enzyme purity of approximately 95% is achieved. Samples, in 25 mM Tris-HCl, 250 mM NaCl, 5% glycerol, 1 mM DTT, pH 7.5, are stored at −80° C. until use. • hIR: GST-rTEV-IR(979-1382) containing amino acid residues 979-1382 of human IR (as annotated by NCBI accession number NP_000199) is expressed and purified by the same process as hIGF1R. Enzyme purity of approximately 92% is achieved. Samples, in 25 mM Tris-HCl, 250 mM NaCl, 5% glycerol, 1 mM DTT, pH 7.5, are stored at −80° C. until use.
Activation of hIGF1R and hIR by Autophosphorylation: • hIGF1R: Activation of GST-rTEV-IGF-1R(957-1367) is achieved by a 4 minute incubation of hIGF1R (2.7 μM final) with 2 mM ATP in 50 mM HEPES, 20 mM MgCl2, 0.1 mg/mL BSA, at room temperature. Autophosphorylation is stopped by addition of EDTA (to 100 mM final). Aliquoted samples are flash frozen in liquid nitrogen and stored at −80° C. until use. • hIR: Activation of […] is achieved by a 5 minute incubation of hIR (2.7 μM final) with 2 mM ATP in 100 mM HEPES, 10 mM MgCl2, 0.1 mg/mL BSA, at room temperature. Autophosphorylation is stopped by addition of EDTA (to 100 mM final). Aliquoted samples are flash frozen in liquid nitrogen and stored at −80° C. until use. • Kinase Assay of Purified hIGF1R or hIR:
Assays are performed in 384-well (Greiner, Catalog No. 784076) microtiter plates. Reaction buffer (50 mM HEPES buffer, pH 7.5; 10 mM MgCl2; 3 mM DTT; 1 mM CHAPS; 0.1 mg/mL BSA) for peptide phosphorylation (10 μl volume) contained, in final concentrations, 500 nM biotinylated peptide substrate; 10 μM ATP; and purified, activated hIGF1R or hIR (0.5 nM). Some compounds were initially assayed against IGF1R in buffer without DTT or CHAPS. […] Compounds, titrated in DMSO, are evaluated at eleven concentrations ranging from 50 μM to 0.2 nM. […] No effect on activity relative to controls without DMSO is observed for hIGF1R or IR at these DMSO amounts. Reactions are incubated for 1 hour at room temperature and are stopped by a 5 μl addition of EDTA (to 33 mM). A further addition of 5 μl detection reagents (for final 7 nM Streptavidin-APC (PerkinElmer #CR130-150), 1 nM Europium-labeled anti-phosphotyrosine monoclonal antibody (PerkinElmer #AD0067), added in reaction buffer (without DTT), is required for signal generation. After 30 minutes, signal is read on PerkinElmer Viewlux microplate imager or Wallac Victor fluorometer.
Data were fitted to the curve described by:
y=((Vmax*x)/(K+x)) where • Vmax is the upper asymptote and • K is the IC50.
The results for each tested compound were recorded as pIC50 calculated as follows: […]

[3] = molecular target: T3, human IGF-1R (NIH-3T3 cells over expressing human IGF-1R) (Homo sapiens, UniProt P08069); experiment: IGF-1R cellular autophosphorylation (DELFIA); assay type: cell-based; settings: IGF-1 stimulated
T3 construct: expressed in transfected cells; host or cells: NIH-3T3 (mouse fibroblasts)
T3 sequence (P08069 31-1367): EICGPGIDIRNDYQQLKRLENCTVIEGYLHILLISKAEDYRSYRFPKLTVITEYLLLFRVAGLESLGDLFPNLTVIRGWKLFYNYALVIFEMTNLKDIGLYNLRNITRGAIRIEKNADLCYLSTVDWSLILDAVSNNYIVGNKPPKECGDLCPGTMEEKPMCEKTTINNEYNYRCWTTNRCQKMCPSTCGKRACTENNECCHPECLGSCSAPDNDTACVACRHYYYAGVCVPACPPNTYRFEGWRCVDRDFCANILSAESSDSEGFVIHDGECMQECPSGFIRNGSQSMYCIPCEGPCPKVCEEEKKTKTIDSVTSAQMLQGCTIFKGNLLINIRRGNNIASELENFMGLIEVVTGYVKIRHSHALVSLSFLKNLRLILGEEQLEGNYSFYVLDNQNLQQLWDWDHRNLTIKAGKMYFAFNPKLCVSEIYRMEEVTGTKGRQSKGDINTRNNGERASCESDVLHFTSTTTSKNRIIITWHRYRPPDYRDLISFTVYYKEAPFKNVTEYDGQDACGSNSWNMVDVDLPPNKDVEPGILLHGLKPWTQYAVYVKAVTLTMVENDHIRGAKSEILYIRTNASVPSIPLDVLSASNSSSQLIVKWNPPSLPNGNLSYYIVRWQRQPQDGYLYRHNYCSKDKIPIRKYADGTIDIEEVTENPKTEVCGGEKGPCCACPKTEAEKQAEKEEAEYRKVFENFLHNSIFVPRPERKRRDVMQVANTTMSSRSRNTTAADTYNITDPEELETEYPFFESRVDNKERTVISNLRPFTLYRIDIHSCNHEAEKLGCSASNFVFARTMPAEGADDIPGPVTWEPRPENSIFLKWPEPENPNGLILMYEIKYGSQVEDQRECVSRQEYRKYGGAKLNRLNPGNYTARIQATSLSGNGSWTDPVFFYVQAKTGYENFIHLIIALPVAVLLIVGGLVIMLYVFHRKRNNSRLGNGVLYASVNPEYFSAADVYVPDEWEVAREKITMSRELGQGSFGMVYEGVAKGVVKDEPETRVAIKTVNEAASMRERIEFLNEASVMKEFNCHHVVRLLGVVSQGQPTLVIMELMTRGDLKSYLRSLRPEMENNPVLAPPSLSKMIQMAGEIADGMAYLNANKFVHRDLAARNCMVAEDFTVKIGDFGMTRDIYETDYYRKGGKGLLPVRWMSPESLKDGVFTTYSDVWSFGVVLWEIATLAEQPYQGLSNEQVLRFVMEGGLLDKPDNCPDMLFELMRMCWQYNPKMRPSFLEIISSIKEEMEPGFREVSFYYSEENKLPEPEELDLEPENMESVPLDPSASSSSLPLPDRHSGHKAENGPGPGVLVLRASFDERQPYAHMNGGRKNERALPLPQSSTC
Method in brief: (§1)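 Read-out: DELFIA on lysates, receptor-specific capture antibody plus europium-labelled anti-phosphotyrosine, reported as % of IGF-1- or insulin-stimulated signal. Transfected NIH-3T3 cells got compound (30 uM–1.5 nM, 2 h) before a 15 min ligand pulse: IGF-1 30 ng/mL for IGF-1R, insulin 3 ug/mL for IR.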

[4] = molecular target: T4, IR (NIH-3T3 cells over expressing human IGF-1R or IR) (Homo sapiens, UniProt P06213); experiment: IR cellular autophosphorylation (DELFIA); assay type: cell-based; settings: NIH-3T3 cells over expressing IR, insulin stimulated
T4 construct: expressed in transfected cells; host or cells: NIH-3T3 (mouse fibroblasts)
T4 sequence (P06213 28-1382): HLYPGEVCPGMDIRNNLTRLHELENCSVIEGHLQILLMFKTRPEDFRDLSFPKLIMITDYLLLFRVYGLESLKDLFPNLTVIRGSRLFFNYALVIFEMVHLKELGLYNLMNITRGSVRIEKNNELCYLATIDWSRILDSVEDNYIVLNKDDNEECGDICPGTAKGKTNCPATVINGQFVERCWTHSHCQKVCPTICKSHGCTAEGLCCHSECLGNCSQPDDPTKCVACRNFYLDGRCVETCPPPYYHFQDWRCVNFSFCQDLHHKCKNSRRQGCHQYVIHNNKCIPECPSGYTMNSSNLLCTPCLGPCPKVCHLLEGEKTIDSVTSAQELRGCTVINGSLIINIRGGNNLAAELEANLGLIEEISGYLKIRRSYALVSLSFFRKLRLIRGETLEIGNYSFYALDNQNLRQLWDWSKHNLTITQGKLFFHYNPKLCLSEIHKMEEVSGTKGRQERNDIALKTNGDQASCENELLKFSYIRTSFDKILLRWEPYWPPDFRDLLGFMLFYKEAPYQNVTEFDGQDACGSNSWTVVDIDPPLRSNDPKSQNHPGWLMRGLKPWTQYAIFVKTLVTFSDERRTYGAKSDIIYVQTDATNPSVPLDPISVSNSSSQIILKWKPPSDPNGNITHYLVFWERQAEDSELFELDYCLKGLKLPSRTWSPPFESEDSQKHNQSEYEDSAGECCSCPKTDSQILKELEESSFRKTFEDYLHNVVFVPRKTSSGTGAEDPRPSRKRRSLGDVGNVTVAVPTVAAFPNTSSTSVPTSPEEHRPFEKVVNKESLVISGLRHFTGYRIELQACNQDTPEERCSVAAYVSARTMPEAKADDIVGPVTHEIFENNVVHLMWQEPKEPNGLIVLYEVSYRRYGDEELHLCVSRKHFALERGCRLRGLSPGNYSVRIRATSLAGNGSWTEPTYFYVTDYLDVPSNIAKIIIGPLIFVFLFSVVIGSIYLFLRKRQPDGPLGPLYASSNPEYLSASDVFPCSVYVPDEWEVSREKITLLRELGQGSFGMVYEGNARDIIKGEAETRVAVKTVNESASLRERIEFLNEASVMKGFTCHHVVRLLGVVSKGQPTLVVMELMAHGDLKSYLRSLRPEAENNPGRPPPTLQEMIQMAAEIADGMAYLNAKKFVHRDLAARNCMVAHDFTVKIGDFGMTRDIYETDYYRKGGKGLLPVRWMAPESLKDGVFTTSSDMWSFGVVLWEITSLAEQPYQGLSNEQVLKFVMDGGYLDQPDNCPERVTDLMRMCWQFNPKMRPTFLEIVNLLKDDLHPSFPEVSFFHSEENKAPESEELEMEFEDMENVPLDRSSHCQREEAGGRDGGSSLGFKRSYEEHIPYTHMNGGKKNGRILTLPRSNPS
Method in brief: as §1

[5] = test system: COLO205 (colon); experiment: Inhibition of cell proliferation, CellTiter-Glo, COLO205; assay type: cell-based; settings: Homo sapiens, COLO 205, 72 h
Method in brief: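 Exponentially growing COLO205 cells in medium with 10% FBS were plated below 2000 cells/well at 37 °C, 5% CO2. Untreated wells served as controls.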

[6] = test system: NCI-H929 (multiple myeloma); experiment: Inhibition of cell proliferation, CellTiter-Glo, NCI-H929; assay type: cell-based; settings: Homo sapiens, 72 h
Method in brief: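 Cells were grown in medium with 10% FBS at 37° C, 5% CO2. Cell number was read as CellTiter-Glo luminescence (cellular ATP), with untreated wells as control.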

SMILES	IC50 [1] [µM]	IC50 [2] [µM]	IC50 [3] [µM]	IC50 [4] [µM]	IC50 [5] [µM]	IC50 [6] [µM]	IR pIC50 [1]	IGF-1R pIC50 [2]
CCOc1cc(CCN2CCN(C)CC2)ccc1Nc1nccc(-c2c(-c3ccc(OC)c(C(=O)Nc4c(F)cccc4F)c3)nc3ccccn23)n1 [Example 146, N-(2,6-difluorophenyl)-5-{3-[2-({2-(ethyloxy)-4-[2-(4-methyl-1-piperazinyl)ethyl]-phenyl}amino)-4-pyrimidinyl]imidazo[1,2-a]pyridin-2-yl}-2-(methyloxy)benzamide]	< 0.1	< 0.1	> 0.5	> 0.5	0.25 to 1			
COc1cc(N2CCC(CCS(C)(=O)=O)CC2)c(C)cc1Nc1nccc(-c2c(-c3ccc(OC(C)C)c(C(=O)Nc4c(F)cccc4F)c3)nc3ccccn23)n1 [Example 214, N-(2,6-difluorophenyl)-2-[(1-methylethyl)oxy]-5-(3-{2-[(5-methyl-2-(methyloxy)-4-{4-[2-(methylsulfonyl)ethyl]-1-piperidinyl}phenyl)amino]-4-pyrimidinyl}imidazo[1,2-a]pyridin-2-yl)benzamide]			< 0.1	< 0.1	< 0.25	< 0.25		++ (at least one average pIC50 measurement greater than 6 against the kinase tested but no average measurement greater than pIC50 of 7)
CCOc1cc(N2CCC(CCS(C)(=O)=O)CC2)c(C)cc1Nc1nccc(-c2c(-c3ccc(OC(C)C)c(C(=O)Nc4c(F)cccc4F)c3)nc3ccccn23)n1 [Example 215]			< 0.1	< 0.1	< 0.25	< 0.25	++ (at least one average pIC50 measurement greater than 6 against the kinase tested but no average measurement greater than pIC50 of 7)	++ (at least one average pIC50 measurement greater than 6 against the kinase tested but no average measurement greater than pIC50 of 7)
CCOc1cc(N2CCC(CCS(C)(=O)=O)CC2)c(C)cc1Nc1nccc(-c2c(-c3ccc(OCC)c(C(=O)Nc4c(F)cccc4F)c3)nc3ccccn23)n1 [Example 217, N-(2,6-difluorophenyl)-2-(ethyloxy)-5-(3-{2-[(2-(ethyloxy)-5-methyl-4-{4-[2-(methylsulfonyl)ethyl]-1-piperidinyl}phenyl)amino]-4-pyrimidinyl}imidazo[1,2-a]pyridin-2-yl)benzamide]			< 0.1	< 0.1	< 0.25	< 0.25		++ (at least one average pIC50 measurement greater than 6 against the kinase tested but no average measurement greater than pIC50 of 7)

Continued, in another order:

IC50 [1] [µM]	IC50 [2] [µM]	IC50 [3] [µM]	IC50 [4] [µM]	IC50 [5] [µM]	IC50 [6] [µM]	SMILES	IR pIC50 [1]	IGF-1R pIC50 [2]
< 0.1	< 0.1	< 0.1	< 0.1	> 1		CCOc1cc(CCN2CCN(C)CC2)ccc1Nc1nccc(-c2c(-c3cccc(C(=O)Nc4c(F)cccc4F)c3)nc3ccccn23)n1 [Example 147, N-(2,6-difluorophenyl)-3-{3-[2-({2-(ethyloxy)-4-[2-(4-methyl-1-piperazinyl)ethyl]-phenyl}amino)-4-pyrimidinyl}imidazo[1,2-a]pyridin-2-yl]benzamide]		
		< 0.1	< 0.1	< 0.25	< 0.25	CCOc1ccc(-c2nc3ccccn3c2-c2ccnc(Nc3cc(CC)c(N4CCC(N5CCN(S(C)(=O)=O)CC5)CC4)cc3OC)n2)cc1C(=O)Nc1c(F)cccc1F [Example 206, N-(2,6-difluorophenyl)-5-(3-{2-[(5-ethyl-2-(methyloxy)-4-{4-[4-(methylsulfonyl)-1-piperazinyl]-1-piperidinyl}phenyl)amino]-4-pyrimidinyl}imidazo[1,2-a]pyridin-2-yl)-2-(ethyloxy)benzamide]	++ (at least one average pIC50 measurement greater than 6 against the kinase tested but no average measurement greater than pIC50 of 7)	++ (at least one average pIC50 measurement greater than 6 against the kinase tested but no average measurement greater than pIC50 of 7)
		< 0.1	< 0.1	< 0.25	< 0.25	CCOc1cc(N2CCC(CCS(C)(=O)=O)CC2)c(CC)cc1Nc1nccc(-c2c(-c3ccc(OCC)c(C(=O)Nc4c(F)cccc4F)c3)nc3ccccn23)n1 [Example 208, N-(2,6-difluorophenyl)-5-(3-{2-[(5-ethyl-2-(ethyloxy)-4-{4-[2-(methylsulfonyl)ethyl]-1-piperidinyl}phenyl)amino]-4-pyrimidinyl}imidazo[1,2-a]pyridin-2-yl)-2-(ethyloxy)benzamide]	++ (at least one average pIC50 measurement greater than 6 against the kinase tested but no average measurement greater than pIC50 of 7)	++ (at least one average pIC50 measurement greater than 6 against the kinase tested but no average measurement greater than pIC50 of 7)
		< 0.1	< 0.1	< 0.25	< 0.25	CCOc1ccc(-c2nc3ccccn3c2-c2ccnc(Nc3cc(CC)c(N4CCC(CCS(C)(=O)=O)CC4)cc3OC)n2)cc1C(=O)Nc1c(F)cccc1F [Example 209, N-(2,6-difluorophenyl)-5-(3-{2-[(5-ethyl-2-(methyloxy)-4-{4-[2-(methylsulfonyl)ethyl]-1-piperidinyl}phenyl)amino]-4-pyrimidinyl}imidazo[1,2-a]pyridin-2-yl)-2-(ethyloxy)benzamide]		++ (at least one average pIC50 measurement greater than 6 against the kinase tested but no average measurement greater than pIC50 of 7)
< 0.1	< 0.1	< 0.1	< 0.1	< 0.25	< 0.25	CCOc1ccc(-c2nc3ccccn3c2-c2ccnc(Nc3cc(Cl)c(N4CCN(CCS(C)(=O)=O)CC4)cc3OC)n2)cc1C(=O)Nc1c(F)cccc1F [Example 212]		
